In PMC9541272, “Carba Analogues of Flupirtine and Retigabine with Improved Oxidation Resistance and Reduced Risk of Quinoid Metabolite Formation” (Chemmedchem, 2022):
Entries after “also recorded” stand apart in the source; their conditions may differ. Read-outs that look alike come from different tables or passages of the source. Each block holds one compound with its values, some of them ahead of it.

Legend:
KV7.2/3 channel [1] = biological target: T1, KV7.2/3 channel (Homo sapiens, UniProt O43525+O43526); set-up: method as in PMID 30990511; settings: previous work; cited from earlier work
[2] = set-up: method as in PMID 25264565; settings: oral administration of 400 mg flupirtine, modified release dosage form once daily for 8 days; cited from earlier work
[3] = set-up: method as in earlier work; settings: severe but sporadic hepatotoxic events; cited from earlier work
[4] = system: TAMH mouse liver cell line; settings: mouse, 24 h
[5] = Cyclic voltammetry, anodic peak potential (oxidizability); format: physicochemical; settings: 0.1 M Tris‐HCl buffer pH 7.4, −0.5 to 1.0 V, sweep rate 0.1 V/s, –[b] = no oxidation observed in the specified potential range
KV7.2/3 channel [6] = biological target: T1, KV7.2/3 channel; assay: KV7.2/3 channel opening activity, thallium-flux FLIPR Potassium Assay in HEK-293 cells overexpressing KV7.2/3; set-up: Emax: dose or concentration left out as unconfirmed; settings: for Emax: HEK293E, read-out: Efficacy
[7] = system: HEP‐G2 human hepatoma cell line; settings: human, 24 h
[8] = set-up: method as in guideline OPPTS 830.7570; settings: reference substances for calibration, Tables S1–S6; ref guideline OPPTS 830.7570; cited from earlier work
[9] = LogD7.4 estimation by HPLC-based method; format: physicochemical; settings: for logD7.4 (single determination): calculated from retention time with one calibration function (A–F)
Experimental: The logarithm of the capacity factors of the reference substances was then plotted against the corresponding logP values taken from the mentioned guideline to obtain a calibration function. For non‐ionizable compounds like the reference substances used for calibration, logP values can be considered equivalent to the logD 7.4 values. To obtain a reference mixture, 2 mg of the reference substances were each dissolved in 1 mL of methanol, and 50 μL aliquots of each reference solution were subsequently combined. The reference mixture was measured before and after the substances to be tested, and the mean retention time from both measurements was used to calculate the calibration function. The calibration function was then used to determine the logD 7.4 values from the corresponding retention times for each substance to be tested. The compounds of interest were injected as a solution in methanol (2 mg/mL), and the retention time was determined as the mean value from two measurements.

[10] = pH 7.4, calculated from retention time with one calibration function (A–F), Table S7, read-out: logD7.4 (single determination)
[11] = pH 7.4, estimated by HPLC-based method, pH 7.4, read-out: LogD 7.4
[12] = HEK‐293 cells overexpressing KV7.2/3

T1 sequence (O43525 whole entry): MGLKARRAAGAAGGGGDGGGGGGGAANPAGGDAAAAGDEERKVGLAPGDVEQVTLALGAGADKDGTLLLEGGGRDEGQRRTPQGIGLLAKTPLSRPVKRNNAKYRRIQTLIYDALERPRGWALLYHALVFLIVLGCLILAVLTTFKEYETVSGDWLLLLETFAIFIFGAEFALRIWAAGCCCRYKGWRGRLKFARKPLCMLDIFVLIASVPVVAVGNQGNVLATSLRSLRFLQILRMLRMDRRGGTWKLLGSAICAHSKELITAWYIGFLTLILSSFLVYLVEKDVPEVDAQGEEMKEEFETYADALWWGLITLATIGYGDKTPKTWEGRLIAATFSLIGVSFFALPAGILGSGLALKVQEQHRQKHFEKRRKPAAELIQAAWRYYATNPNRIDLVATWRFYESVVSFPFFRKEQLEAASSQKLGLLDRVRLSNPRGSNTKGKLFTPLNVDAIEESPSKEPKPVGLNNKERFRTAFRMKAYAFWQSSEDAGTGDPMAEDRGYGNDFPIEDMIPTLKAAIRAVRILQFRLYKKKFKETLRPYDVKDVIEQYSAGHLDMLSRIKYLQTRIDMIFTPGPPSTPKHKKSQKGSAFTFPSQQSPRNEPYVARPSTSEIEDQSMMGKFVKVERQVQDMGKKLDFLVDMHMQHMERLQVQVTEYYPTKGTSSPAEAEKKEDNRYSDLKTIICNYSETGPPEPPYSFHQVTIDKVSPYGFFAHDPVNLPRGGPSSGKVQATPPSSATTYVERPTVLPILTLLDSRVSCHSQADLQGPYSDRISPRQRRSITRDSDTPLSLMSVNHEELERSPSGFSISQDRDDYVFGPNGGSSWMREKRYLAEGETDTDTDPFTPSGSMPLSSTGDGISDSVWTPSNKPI
T1 sequence (O43526 whole entry): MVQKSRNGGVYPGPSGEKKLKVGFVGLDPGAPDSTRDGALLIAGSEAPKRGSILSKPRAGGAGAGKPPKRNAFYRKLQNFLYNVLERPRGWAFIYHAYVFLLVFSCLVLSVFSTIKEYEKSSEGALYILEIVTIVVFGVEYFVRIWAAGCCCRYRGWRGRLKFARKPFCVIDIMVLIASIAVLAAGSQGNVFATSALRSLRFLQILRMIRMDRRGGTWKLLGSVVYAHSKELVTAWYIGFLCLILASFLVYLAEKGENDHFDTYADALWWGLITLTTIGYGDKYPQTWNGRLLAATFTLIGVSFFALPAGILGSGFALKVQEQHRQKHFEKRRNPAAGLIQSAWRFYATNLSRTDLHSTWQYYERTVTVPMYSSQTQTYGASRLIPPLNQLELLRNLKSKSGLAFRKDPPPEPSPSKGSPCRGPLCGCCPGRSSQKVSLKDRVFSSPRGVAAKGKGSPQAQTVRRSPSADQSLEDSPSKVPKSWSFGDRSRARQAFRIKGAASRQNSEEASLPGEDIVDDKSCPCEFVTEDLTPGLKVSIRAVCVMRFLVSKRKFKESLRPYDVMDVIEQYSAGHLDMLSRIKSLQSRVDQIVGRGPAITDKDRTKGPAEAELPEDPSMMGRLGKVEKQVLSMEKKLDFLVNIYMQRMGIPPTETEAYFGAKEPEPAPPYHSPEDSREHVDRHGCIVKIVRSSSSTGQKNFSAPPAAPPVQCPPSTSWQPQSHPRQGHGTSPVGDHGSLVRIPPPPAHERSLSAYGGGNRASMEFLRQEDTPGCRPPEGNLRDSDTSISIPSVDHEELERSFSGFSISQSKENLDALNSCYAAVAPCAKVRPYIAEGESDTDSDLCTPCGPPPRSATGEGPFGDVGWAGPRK

SMILES: CCOC(=O)Nc1ccc(NCc2ccc(F)cc2)nc1C [compound 6]
KV7.2/3 opening potency (in words) (KV7.2/3 channel [1]): equipotent to flupirtine

SMILES: CCOC(=O)Nc1ccc(NCc2ccc(F)cc2)nc1N [Flu, flupirtine]
peak plasma concentration [2]: 1.6 µM | reporting rate of hepatotoxic events [3]: 1.68 cases/100,000 patient‐years | LD25 (concentration to reduce cell viability by 25 %) [4]: 103 ± 47 µM | LD25 values (range over both liver cell lines) ([4]; human): 74 to 103 µM | Ep.a. (anodic peak potential) [5]: 306 mV | Emax (KV7.2/3 channel [6]): 100% | LD25 (concentration to reduce cell viability by 25 %) [7]: 74 ± 40 µM

melting point: 92 °C
SMILES: CCCC(=O)Nc1ccc(CNc2ccc(F)cc2)cn1 [compound 44, N ‐(5‐{[(4‐Fluorophenyl)amino]methyl}pyridin‐2‐yl)butyramide]

SMILES: CCOC(=O)c1ccccc1 [Ethyl benzoate]
logD (Lit.) [8]: 2.6

SMILES: O=C(Oc1ccccc1)c1ccccc1 [Phenyl benzoate]
logD (Lit.) [8]: 3.6

SMILES: CCCC(=O)Nc1ccc(CNc2ccc(C)cn2)cc1C [35 f, N ‐(2‐Methyl‐4‐{[(5‐methylpyridin‐2‐yl)amino]methyl}phenyl)butyramide]
LD25 (concentration to reduce cell viability by 25 %) [4]: >125 µM | LD50 (concentration to reduce cell viability by 50 %) [4]: >125 µM | logD7.4 (single determination) ([9]; Table S7): 2.263 | chromatographic logD [9, 10]: 2.29 | chromatographic logD [9, 11]: 2.3 | Ep.a. (anodic peak potential) [5]: 850 mV | EC50 (KV7.2/3 channel [6]): 7.86 ± 2.17 µM | Emax (KV7.2/3 channel [6]): 70 ± 9% | KV7.2/3 opening activity (in words) (KV7.2/3 channel [6]; [12]): weakly active | LD25 (concentration to reduce cell viability by 25 %) [7]: >125 µM | LD50 (concentration to reduce cell viability by 50 %) [7]: >125 µM

SMILES: Cc1cc(CNc2ccc(F)cc2F)ccc1NC(=O)c1cccnc1 [35 e, N ‐(4‐{[(2,4‐Difluorophenyl)amino]methyl}‐2‐methylphenyl)nicotinamide]
LD25 (concentration to reduce cell viability by 25 %) [4]: 41 ± 11 µM | LD50 (concentration to reduce cell viability by 50 %) [4]: >125 µM | logD7.4 (single determination) ([9]; Table S7): 2.952 | chromatographic logD [9, 10]: 2.97 | chromatographic logD [9, 11]: 3 | Ep.a. (anodic peak potential) [5]: no anodic peak potential could be determined; also recorded: –^[b] | KV7.2/3 opening activity (in words) (KV7.2/3 channel [6]; [12]): inactive | EC50 (required concentration to reach half‐maximal KV7.2/3 channel opening activity) (KV7.2/3 channel [6]; HEK‐293 cells overexpressing KV7.2/3, mean ± SD, at least three determinations, –[e] = inactive up to a concentration of 20 μM): –^[e] | Efficacy (KV7.2/3 channel [6]; maximal fluorescence signal relative to flupirtine (100 %), HEK‐293, –[e] = inactive up to a concentration of 20 μM): –^[e] | LD25 (concentration to reduce cell viability by 25 %) [7]: 61 ± 7 µM | LD50 (concentration to reduce cell viability by 50 %) [7]: 107 ± 16 µM
